In PubChem BioAssay (NCI):
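Following 48 hours of exposure in 96-well plates, responses at five concentrations were used to interpolate endpoints linearly. TGI denotes the concentration required for complete inhibition of growth.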

Experiments:
Assay in all cases: inhibition of tumour cell growth, NCI panel, 48 h
[1] = test system: 786-0 renal
[2] = test system: A498 renal
[3] = test system: A549 NSCLC
[4] = test system: ACHN renal
[5] = test system: BT-549 breast
[6] = test system: CAKI-1 renal
[7] = test system: CCRF-CEM leukemia
[8] = test system: COLO 205 colon
[9] = test system: DU-145 prostate
[10] = test system: EKVX NSCLC
[11] = test system: HCC-2998 colon
[12] = test system: HCT-116 colon
[13] = test system: HCT-15 colon
[14] = test system: HL-60(TB) leukemia
[15] = test system: HOP-62 NSCLC
[16] = test system: HOP-92 NSCLC
[17] = test system: HS 578T breast
[18] = test system: HT29 colon
[19] = test system: IGROV1 ovarian
[20] = test system: K-562 leukemia
[21] = test system: KM12 colon
[22] = test system: LOX IMVI melanoma
[23] = test system: M14 melanoma
[24] = test system: MALME-3M melanoma
[25] = test system: MCF7 breast
[26] = test system: MDA-MB-231 breast
[27] = test system: MDA-MB-435
[28] = test system: MDA-N
[29] = test system: MOLT-4 leukemia
[30] = test system: NCI-H226 lung
[31] = test system: NCI-H23 lung
[32] = test system: NCI-H460 lung
[33] = test system: NCI-H522 lung
[34] = test system: OVCAR-3 ovarian
[35] = test system: OVCAR-4 ovarian
[36] = test system: OVCAR-5 ovarian
[37] = test system: OVCAR-8 ovarian
[38] = test system: PC-3 prostate
[39] = test system: RPMI-8226 leukemia
[40] = test system: RXF 393 renal
[41] = test system: SF-268 CNS
[42] = test system: SF-295 CNS
[43] = test system: SF-539 CNS
[44] = test system: SK-MEL-2 melanoma
[45] = test system: SK-MEL-28 melanoma
[46] = test system: SK-MEL-5 melanoma
[47] = test system: SK-OV-3 ovarian
[48] = test system: SN12C renal
[49] = test system: SNB-19 CNS
[50] = test system: SNB-75 CNS
[51] = test system: SW-620 colon
[52] = test system: T-47D breast
[53] = test system: TK-10 renal
[54] = test system: U251 CNS
[55] = test system: UACC-257 melanoma
[56] = test system: UACC-62 melanoma
[57] = test system: UO-31 renal
[58] = test system: NCI/ADR-RES ovarian
[59] = test system: SR leukemia

CC(C)(O)[C@H]1[C@@H]2OC(=O)[C@H]1[C@]1(O)C[C@H]3OC34C(=O)O[C@H]2[C@@]41C (stereo partly specified) (tested in a mixture with another compound)
TGI [1]: > 100000 nM | TGI [2]: > 100 µM | TGI [3]: > 100 µM | TGI [4]: > 100 µM | TGI [5]: > 100 µM | TGI [6]: > 100 µM | TGI [7]: > 100 µM | TGI [8]: > 100 µM | TGI [9]: > 100 µM | TGI [10]: > 100 µM | TGI [11]: > 100000 nM | TGI [12]: > 100 µM | TGI [13]: > 100 µM | TGI [14]: > 100 µM | TGI [15]: > 100 µM | TGI [16]: > 100 µM | TGI [17]: > 100 µM | TGI [18]: > 100 µM | TGI [19]: > 100 µM | TGI [20]: > 100 µM | TGI [21]: > 100 µM | TGI [22]: > 100 µM | TGI [23]: > 100000 nM | TGI [24]: > 100 µM | TGI [25]: > 100 µM | TGI [26]: > 100 µM | TGI [27]: > 100 µM | TGI [28]: > 100 µM | TGI [29]: > 100 µM | TGI [30]: > 100 µM | TGI [31]: > 100 µM | TGI [32]: > 100 µM | TGI [33]: > 100 µM | TGI [34]: > 100 µM | TGI [35]: > 100 µM | TGI [36]: > 100 µM | TGI [37]: > 100 µM | TGI [38]: > 100 µM | TGI [39]: > 100 µM | TGI [40]: > 100 µM | TGI [41]: > 100 µM | TGI [42]: > 100 µM | TGI [43]: > 100 µM | TGI [44]: > 100 µM | TGI [45]: > 100 µM | TGI [46]: > 100000 nM | TGI [47]: > 100 µM | TGI [48]: > 100 µM | TGI [49]: > 100 µM | TGI [50]: > 100 µM | TGI [51]: > 100 µM | TGI [52]: > 100 µM | TGI [53]: > 100 µM | TGI [54]: > 100 µM | TGI [55]: > 100 µM | TGI [56]: > 100 µM | TGI [57]: > 100 µM

O=c1[nH]c2ccsc2c(=O)n1COCc1ccccc1
TGI [1]: > 100000 nM | TGI [2]: > 100 µM | TGI [3]: > 100 µM | TGI [4]: > 100 µM | TGI [5]: > 100 µM | TGI [6]: > 100 µM | TGI [7]: > 100 µM | TGI [8]: > 100 µM | TGI [9]: > 100 µM | TGI [10]: > 100 µM | TGI [11]: > 100000 nM | TGI [12]: > 100 µM | TGI [13]: > 100 µM | TGI [14]: > 100 µM | TGI [15]: > 100 µM | TGI [16]: > 100 µM | TGI [17]: > 100 µM | TGI [18]: > 100 µM | TGI [19]: > 100 µM | TGI [20]: > 100 µM | TGI [21]: > 100 µM | TGI [22]: > 100 µM | TGI [23]: > 100000 nM | TGI [24]: > 100 µM | TGI [25]: > 100 µM | TGI [26]: > 100 µM | TGI [27]: > 100 µM | TGI [28]: > 100 µM | TGI [29]: > 100 µM | TGI [30]: > 100 µM | TGI [31]: > 100 µM | TGI [32]: > 100 µM | TGI [33]: > 100 µM | TGI [58]: > 100 µM | TGI [34]: > 100 µM | TGI [35]: > 100 µM | TGI [36]: > 100 µM | TGI [37]: > 100 µM | TGI [38]: > 100 µM | TGI [39]: > 100 µM | TGI [40]: > 100 µM | TGI [41]: > 100 µM | TGI [42]: > 100 µM | TGI [43]: > 100 µM | TGI [44]: > 100 µM | TGI [45]: > 100 µM | TGI [46]: > 100000 nM | TGI [48]: > 100 µM | TGI [49]: > 100 µM | TGI [50]: > 100 µM | TGI [59]: > 100 µM | TGI [51]: > 100 µM | TGI [53]: > 100 µM | TGI [54]: > 100 µM | TGI [55]: > 100 µM | TGI [57]: > 100 µM

C/C(=N/NC(=S)N1CCCC1)c1cccc(/C(C)=N\NC(=S)N2CCCC2)n1
TGI [1]: 2660 nM | TGI [2]: 2.59 µM | TGI [3]: 9.01 µM | TGI [4]: 3.4 µM | TGI [5]: 5.13 µM | TGI [6]: 3.37 µM | TGI [7]: 3.01 µM | TGI [8]: > 100 µM | TGI [9]: 38.5 µM | TGI [10]: 3.49 µM | TGI [11]: 2860 nM | TGI [12]: 3.28 µM | TGI [13]: 4.96 µM | TGI [14]: 4.88 µM | TGI [15]: 0.891 µM | TGI [17]: 25.2 µM | TGI [18]: 5.1 µM | TGI [19]: 37.1 µM | TGI [20]: > 100 µM | TGI [21]: 4.46 µM | TGI [22]: > 100 µM | TGI [23]: 2560 nM | TGI [24]: 4.89 µM | TGI [26]: 3.23 µM | TGI [27]: 3.13 µM | TGI [28]: 3.89 µM | TGI [29]: 2.18 µM | TGI [30]: 3.76 µM | TGI [31]: 6.5 µM | TGI [32]: 3.63 µM | TGI [33]: 7.77 µM | TGI [58]: 7.62 µM | TGI [34]: 2.63 µM | TGI [36]: 6.85 µM | TGI [37]: 2.35 µM | TGI [38]: 5.36 µM | TGI [39]: 18.1 µM | TGI [40]: 3.18 µM | TGI [41]: 14.7 µM | TGI [42]: 2.24 µM | TGI [43]: 3.72 µM | TGI [44]: 4.21 µM | TGI [45]: 5.09 µM | TGI [46]: 2690 nM | TGI [47]: 4.65 µM | TGI [48]: 5.73 µM | TGI [49]: 12.1 µM | TGI [59]: 7.58 µM | TGI [51]: 4.33 µM | TGI [53]: 3.71 µM | TGI [54]: 4.14 µM | TGI [56]: 9.39 µM | TGI [57]: 2.11 µM

C=C1CC(COc2ccc3ccc(=O)oc3c2)(c2ccccc2)OC1=O (stereo unspecified)
TGI [1]: 2840 nM | TGI [3]: 27.8 µM | TGI [4]: 3.61 µM | TGI [5]: 2.95 µM | TGI [6]: 2.52 µM | TGI [7]: 2.7 µM | TGI [8]: 1.79 µM | TGI [9]: 7.21 µM | TGI [10]: 22 µM | TGI [11]: 2480 nM | TGI [12]: 2 µM | TGI [13]: 4.13 µM | TGI [14]: 0.708 µM | TGI [15]: 26.9 µM | TGI [16]: 2.15 µM | TGI [17]: > 23.7 µM | TGI [18]: 2.27 µM | TGI [19]: 3.36 µM | TGI [20]: 2.45 µM | TGI [21]: 13.5 µM | TGI [22]: 2.57 µM | TGI [23]: 2400 nM | TGI [24]: 6.77 µM | TGI [25]: 2.78 µM | TGI [26]: 6.88 µM | TGI [27]: 7.82 µM | TGI [28]: 3.85 µM | TGI [29]: 4.16 µM | TGI [30]: 12.4 µM | TGI [31]: 3.5 µM | TGI [32]: 28 µM | TGI [33]: 2.29 µM | TGI [58]: 12.4 µM | TGI [34]: 3.36 µM | TGI [35]: 3.22 µM | TGI [36]: 13 µM | TGI [37]: 7.9 µM | TGI [38]: 7.58 µM | TGI [39]: 0.434 µM | TGI [41]: 11.9 µM | TGI [42]: 20.7 µM | TGI [44]: 4.18 µM | TGI [45]: 6.12 µM | TGI [46]: 2850 nM | TGI [47]: 16.1 µM | TGI [48]: 8.23 µM | TGI [49]: 28.5 µM | TGI [50]: 12.2 µM | TGI [59]: > 31 µM | TGI [51]: 1.94 µM | TGI [53]: 2.99 µM | TGI [54]: 22.2 µM | TGI [55]: 4.05 µM | TGI [56]: 2.92 µM | TGI [57]: 9.76 µM
